From paper PMC6398866 (PLoS ONE, 2019)

Key:
rat aortic rings = assay: Isometric tension measurement, U46619-precontracted aortic rings
Method: A vasoconstriction-relaxation study was performed as described previously. Male Sprague-Dawley rats were purchased from Orient Bio (Gyeonggi-do, South Korea). Briefly, the thoracic aortas of the rats were excised and immersed in ice-cold, modified Krebs solution. The aortas were cleaned of all connective tissue, soaked in Krebs-bicarbonate solution, and cut into four ring segments (3.5 mm long). Each aortic ring was suspended in a water-jacketed organ bath (6 mL) maintained at 37°C and aerated with a mixture of 95% O2 and 5% CO2. Each ring was connected to an isometric force transducer (Danish Myo Technology, Skejbyparken, Aarhus N, Denmark). The rings were stretched to an optimal resting tension of 1.0 or 2.0 g, which was maintained throughout the experiment. Each ring was equilibrated in the organ bath solution for 90 min before the contractile responses were measured after the addition of 50 mM KCl.

[1] = tested on: Ang II-induced hypertensive mice; details: cited from earlier work
Cox-2 mRNA = assay: qRT-PCR of aortic tissue, Ang II mice; assay type: in vivo; details: Ang II-infused mice, 3 mg·kg^-1·day^-1 i.p. day 8 to 14, vs Ang II group
arginase 1 mRNA = assay: qRT-PCR of aortic tissue, Ang II mice; assay type: in vivo; details: Ang II-infused mice, 3 mg·kg^-1·day^-1 i.p. day 8 to 14, vs Ang II group
collagen type III mRNA = assay: qRT-PCR, Ang II mice; details: Ang II-infused mice, 3 mg·kg^-1·day^-1 i.p. day 8 to 14, S1 Fig
Method: (§1) Mice were anesthetized with a ketamine (120 mg/kg), and xylazine (6.2 mg/kg) mixture and 1-cm incisions were created on the backs of the mice. Ang II (1.3 mg·kg^-1·day^-1) was subcutaneously infused into the mice using an Alzet osmotic pump as described previously [26]. […] Ang II was dissolved in a 0.9% sodium chloride (NaCl) solution. The sham control mice received the vehicle (dimethyl sulfoxide [DMSO]). […] Mice were sacrificed at the end of the study by CO2 inhalation.
(§2) Total RNA from the aorta tissue and cells was isolated with TriZol reagent (Invitrogen Life Technologies, Waltham, MA, USA), and 1 μg RNA was used for the reverse transcription (RT) reaction using TOPscript RT DryMIX (Enzynomics, Daejeon, South Korea). The mRNA amounts were determined using the SYBR Green PCR kit (Enzynomics, Daejeon, South Korea). All the data were normalized to the glyceraldehyde 3-phosphate dehydrogenase (GAPDH) expression using the 2-^ΔΔct method.

[2] = tested on: Ang II-induced hypertensive mice; assay: Systolic blood pressure (tail-cuff) in Ang II-induced hypertensive mice; assay type: in vivo; details: Ang II-infused mice, 3 mg·kg^-1·day^-1 i.p. day 8 to 14, vs Ang II group
From the text: All animal experiments were approved by the Animal Experiment Committee of the Chonnam National University Medical School (CNU IACUC-H-2017-70) and carried out in accordance with the Guide for the Care and Use of Laboratory Animals (US National Institutes of Health Publication, 8th edition, 2011). CD-1 male mice (8-week-old) were purchased from OrientBio Company (Gyeonggi, South Korea). Alzet mini-osmotic pumps (model 1002) were purchased from Durect Corporation (Cupertino, CA, USA).

SOD3 mRNA = assay: qRT-PCR of aortic tissue, Ang II mice; assay type: in vivo; details: Ang II-infused mice, 3 mg·kg^-1·day^-1 i.p. day 8 to 14, vs Ang II group
CD68+ macrophages = assay: CD68 immunohistochemistry of aorta (macrophage infiltration), Ang II mice; assay type: in vivo; details: Ang II-infused mice, 3 mg·kg^-1·day^-1 i.p. day 8 to 14, immunohistochemistry
Method: For immunohistochemistry, staining was performed in aortic tissues using a primary CD68 antibody. Before incubation with primary antibodies, aorta sections received antigen retrieval using a citrate buffer. Negative controls were performed without a primary antibody.

VCAM-1 mRNA = assay: qRT-PCR of aortic tissue, Ang II mice; assay type: in vivo; details: Ang II-infused mice, 3 mg·kg^-1·day^-1 i.p. day 8 to 14, vs Ang II group
Nox2 mRNA = assay: qRT-PCR of aortic tissue, Ang II mice; assay type: in vivo; details: Ang II-infused mice, 3 mg·kg^-1·day^-1 i.p. day 8 to 14, vs Ang II group
p47phox mRNA = assay: qRT-PCR of aortic tissue, Ang II mice; assay type: in vivo; details: Ang II-infused mice, 3 mg·kg^-1·day^-1 i.p. day 8 to 14, vs Ang II group
TNF-α mRNA = assay: qRT-PCR of aortic tissue, Ang II mice; assay type: in vivo; details: Ang II-infused mice, 3 mg·kg^-1·day^-1 i.p. day 8 to 14, vs Ang II group
DDAH1 mRNA = assay: qRT-PCR of aortic tissue, Ang II mice; details: Ang II-infused mice, 3 mg·kg^-1·day^-1 i.p. day 8 to 14, vs Ang II group
Method: as §1, §2

iNOS mRNA = assay: qRT-PCR of aortic tissue, Ang II mice; assay type: in vivo; details: Ang II-infused mice, 3 mg·kg^-1·day^-1 i.p. day 8 to 14, vs Ang II group
[3] = tested on: Ang II-induced hypertensive mice; assay: NO levels in serum and aorta of Ang II-infused mice (Griess assay); details: 3 mg·kg^-1·day^-1 i.p.
Method: Mice were anesthetized with a ketamine (120 mg/kg), and xylazine (6.2 mg/kg) mixture and 1-cm incisions were created on the backs of the mice. Ang II (1.3 mg·kg^-1·day^-1) was subcutaneously infused into the mice using an Alzet osmotic pump as described previously [26]. […] Ang II was dissolved in a 0.9% sodium chloride (NaCl) solution. The sham control mice received the vehicle (dimethyl sulfoxide [DMSO]). […] Mice were subjected to blood pressure measurements three times before determination of the systolic blood pressure on day 14 after Ang II infusion. The blood pressure was measured in awake mice using the tail-cuff method (BP-2000, Visitech Systems, Apex, NC, USA).
NO levels in the serum (100 μl) were measured without dilution. Aorta NO levels were determined using 50 μg of protein, which was deproteinized with 5% trichloroacetic acid (TCA).

E2F3 mRNA = assay: qRT-PCR of aortic tissue, Ang II mice; assay type: in vivo; details: Ang II-infused mice, 3 mg·kg^-1·day^-1 i.p. day 8 to 14, vs Ang II group
arginase 2 mRNA = assay: qRT-PCR of aortic tissue, Ang II mice; assay type: in vivo; details: Ang II-infused mice, 3 mg·kg^-1·day^-1 i.p. day 8 to 14, vs Ang II group
skeletal α-actin mRNA = assay: qRT-PCR of heart tissue, Ang II mice; assay type: in vivo; details: Ang II-infused mice, 3 mg·kg^-1·day^-1 i.p. day 8 to 14, vs Ang II group
cyclin E1 mRNA = assay: qRT-PCR of aortic tissue, Ang II mice; assay type: in vivo; details: Ang II-infused mice, 3 mg·kg^-1·day^-1 i.p. day 8 to 14, vs Ang II group
GTPCH mRNA = assay: qRT-PCR of aortic tissue, Ang II mice; assay type: in vivo; details: Ang II-infused mice, 3 mg·kg^-1·day^-1 i.p. day 8 to 14, vs Ang II group
cyclin D1 mRNA = assay: qRT-PCR of aortic tissue, Ang II mice; assay type: in vivo; details: Ang II-infused mice, 3 mg·kg^-1·day^-1 i.p. day 8 to 14, vs Ang II group
[4] = tested on: model of Cushing's syndrome; parameters: method as in PMID 28928236; details: model of Cushing's syndrome ref 23; cited from earlier work
[5] = tested on: Ang II-induced hypertensive mice; assay: Aortic collagen deposition (Masson's trichrome staining) in Ang II mice; details: Ang II-infused mice, 3 mg·kg^-1·day^-1 i.p. day 8 to 14, Masson's trichrome
Method: Mice were anesthetized with a ketamine (120 mg/kg), and xylazine (6.2 mg/kg) mixture and 1-cm incisions were created on the backs of the mice. Ang II (1.3 mg·kg^-1·day^-1) was subcutaneously infused into the mice using an Alzet osmotic pump as described previously [26]. […] Ang II was dissolved in a 0.9% sodium chloride (NaCl) solution. The sham control mice received the vehicle (dimethyl sulfoxide [DMSO]). […] Mice were subjected to blood pressure measurements three times before determination of the systolic blood pressure on day 14 after Ang II infusion. The blood pressure was measured in awake mice using the tail-cuff method (BP-2000, Visitech Systems, Apex, NC, USA). Mice were sacrificed at the end of the study by CO2 inhalation.
Aortic tissues were fixed in 4% paraformaldehyde at 25°C, embedded in paraffin, and cut into 3-μm thick sections. The tissue slides were deparaffinized three times with xylene and hydrated using serially diluted ethanol. After immersing in tap water for 2 min, the slides were stained with Gill’s hematoxylin V for 5 min and then washed with tap water for 5 min and 95% ethanol for 2 min. The slides were stained with Eosin Y for 1 min, dehydrated with ethanol and xylene, and mounted using Canada balsam. The aortic wall thickness was measured using the NIS Elements Software (Nikon, Japan). […]

MCP-1 mRNA = assay: qRT-PCR of aortic tissue, Ang II mice; assay type: in vivo; details: Ang II-infused mice, 3 mg·kg^-1·day^-1 i.p. day 8 to 14, vs Ang II group
IL-1β mRNA = assay: qRT-PCR of aortic tissue, Ang II mice; assay type: in vivo; details: Ang II-infused mice, 3 mg·kg^-1·day^-1 i.p. day 8 to 14, vs Ang II group
[6] = tested on: Ang II-induced hypertensive mice; assay: Aortic wall thickness (H&E staining) in Ang II mice; assay type: in vivo; details: Ang II-infused mice, 3 mg·kg^-1·day^-1 i.p. day 8 to 14, H&E, vs Ang II group
ACE1 mRNA = assay: qRT-PCR of aortic tissue, Ang II mice; details: Ang II-infused mice, 3 mg·kg^-1·day^-1 i.p. day 8 to 14
Method: as §1, §2

ANP mRNA = assay: qRT-PCR of heart tissue, Ang II mice; assay type: in vivo; details: Ang II-infused mice, 3 mg·kg^-1·day^-1 i.p. day 8 to 14, vs Ang II group
[7] = tested on: vascular smooth muscle cells (VSMCs); assay: NO production in VSMC medium (Griess assay); assay type: cell-based; details: MS-275 3 and 10 μM, Ang II 1 μM, 24 h, Griess reagent
Method: VSMCs were seeded in 12 well plates.

AT1 mRNA = assay: qRT-PCR of aortic tissue, Ang II mice; assay type: in vivo; details: Ang II-infused mice, 3 mg·kg^-1·day^-1 i.p. day 8 to 14, vs Ang II group
BNP mRNA = assay: qRT-PCR of heart tissue, Ang II mice; assay type: in vivo; details: Ang II-infused mice, 3 mg·kg^-1·day^-1 i.p. day 8 to 14, vs Ang II group
ICAM-1 mRNA = assay: qRT-PCR of aortic tissue, Ang II mice; assay type: in vivo; details: Ang II-infused mice, 3 mg·kg^-1·day^-1 i.p. day 8 to 14, vs Ang II group
Nox1 mRNA = assay: qRT-PCR of aortic tissue, Ang II mice; assay type: in vivo; details: Ang II-infused mice, 3 mg·kg^-1·day^-1 i.p. day 8 to 14, vs Ang II group
GATA6 mRNA = assay: qRT-PCR of aortic tissue, Ang II mice; assay type: in vivo; details: Ang II-infused mice, 3 mg·kg^-1·day^-1 i.p. day 8 to 14, vs Ang II group
AT1 = details: through AT1 ref 25; cited from earlier work
[8] = tested on: spontaneously hypertensive rats (SHR); parameters: method as in PMID 22389387; details: long-term treatment, SHR ref 22; cited from earlier work
[9] = tested on: high-fat diet-induced hypertension; parameters: method as in PMID 28720877; details: by downregulating Ang II and AT1 ref 24; cited from earlier work

## COC(=O)[C@@H](N)CCCNC(N)=N[N+](=O)[O-] [L-NAME, N^G-nitro-L-arginine methyl ester]
Rat aortic rings; endothelium-intact rat aortic rings, L-NAME 10 or 100 μM for 30 min
  effect of pretreatment on MS-275-induced vascular relaxation: reduced

## Cn1c(/C=C/C(=O)NO)ccc1/C=C/C(=O)c1cccc(F)c1 [MC1568]
[1]; Ang II-induced hypertensive mice ref 26
  high systolic blood pressure: reduces

## Nc1ccccc1NC(=O)c1ccc(CNC(=O)OCc2cccnc2)cc1 [MS-275]
Cox-2 mRNA
  Cox-2 mRNA level in aorta: not significantly decreased
Arginase 1 mRNA
  arginase 1 mRNA level in aorta: not reduced
Collagen type III mRNA
  collagen type III mRNA level: reduced
[2]
  systolic blood pressure: significantly reduced
SOD3 mRNA
  SOD3 mRNA expression in aorta: did not restore
CD68+ macrophages
  number of CD68+ macrophages in aorta tissue: reduced
VCAM-1 mRNA
  VCAM-1 expression in aorta: significantly inhibited
Nox2 mRNA
  Nox2 mRNA level in aorta: unchanged
p47phox mRNA
  p47phox mRNA level in aorta: unchanged
TNF-α mRNA
  TNF-α mRNA level in aorta: significantly attenuated
DDAH1 mRNA
  DDAH1 mRNA level in aorta: suppressed
iNOS mRNA
  iNOS mRNA level in aorta: significantly attenuated
[3]
  NO level in aorta: not induced
  NO level in serum: not induced
E2F3 mRNA
  E2F3 mRNA level in aorta: significantly inhibited
Arginase 2 mRNA
  arginase 2 mRNA level in aorta: not reduced
Skeletal α-actin mRNA
  skeletal a-actin mRNA level in heart: significantly reduced
Cyclin E1 mRNA
  cyclin E1 mRNA level in aorta: not significantly decreased
GTPCH mRNA
  GTPCH mRNA level in aorta: significantly reduced
Cyclin D1 mRNA
  cyclin D1 mRNA level in aorta: not significantly decreased
[4]
  hypertension and hyperglycemia: attenuates
[5]
  collagen deposition in the adventitia of aortic tissues: attenuated
MCP-1 mRNA
  MCP-1 mRNA level in aorta: significantly attenuated
IL-1β mRNA
  IL-1β mRNA level in aorta: significantly attenuated
Rat aortic rings; endothelium-intact and -denuded rat aortas, U46619 30 nM, MS-275 cumulative 0.003–3 μM
  vasorelaxation of U46619-precontracted aortic rings: induced vasorelaxation
Rat aortic rings; rat aortic rings precontracted with U46619 30 nM
  concentration at which maximum relaxation was observed: 3 µM
[6]
  aortic wall thickness: significantly decreased
ACE1 mRNA
  ACE1 mRNA level in aorta: significantly reduced
ANP mRNA
  ANP mRNA level in heart: significantly reduced
[7]
  NO level in VSMC medium lowered by Ang II: significantly restored
AT1 mRNA
  AT1 mRNA level in aorta: decreased
BNP mRNA
  BNP mRNA level in heart: significantly reduced
ICAM-1 mRNA
  ICAM-1 expression in aorta: significantly inhibited
Nox1 mRNA
  Nox1 mRNA level in aorta: unchanged
GATA6 mRNA
  GATA6 mRNA level in aorta: significantly suppressed

## Nc1cc(F)ccc1NC(=O)/C=C/c1cnn(C/C=C/c2ccccc2)c1 [RGFP966]
Cox-2 mRNA
  Cox-2 mRNA level in aorta: not significantly decreased
Arginase 1 mRNA
  arginase 1 mRNA level in aorta: not reduced
[2]
  systolic blood pressure: significantly reduced
SOD3 mRNA
  SOD3 mRNA expression in aorta: did not restore
CD68+ macrophages
  number of CD68+ macrophages in aorta tissue: reduced
VCAM-1 mRNA
  VCAM-1 expression in aorta: not
Nox2 mRNA
  Nox2 mRNA level in aorta: unchanged
p47phox mRNA
  p47phox mRNA level in aorta: unchanged
iNOS mRNA
  iNOS mRNA level in aorta: not
E2F3 mRNA
  E2F3 mRNA level in aorta: significantly inhibited
Arginase 2 mRNA
  arginase 2 mRNA level in aorta: not reduced
Skeletal α-actin mRNA
  skeletal a-actin mRNA level in heart: significantly reduced
Cyclin E1 mRNA
  cyclin E1 mRNA level in aorta: not significantly decreased
GTPCH mRNA
  GTPCH mRNA level in aorta: significantly reduced
Cyclin D1 mRNA
  cyclin D1 mRNA level in aorta: not significantly decreased
MCP-1 mRNA
  MCP-1 mRNA level in aorta: not
[6]
  aortic wall thickness: significantly decreased
ANP mRNA
  ANP mRNA level in heart: significantly reduced
BNP mRNA
  BNP mRNA level in heart: significantly reduced
Nox1 mRNA
  Nox1 mRNA level in aorta: unchanged
GATA6 mRNA
  GATA6 mRNA level in aorta: significantly suppressed

## CC(/C=C/C(=O)NO)=C\[C@@H](C)C(=O)c1ccc(N(C)C)cc1 [TSA, trichostatin A]
AT1
  hypertension and vasoconstriction: inhibits

## CCCC(CCC)C(=O)O [VPA, valproic acid]
[8]
  cardiac hypertrophy, inflammation, and hypertensive responses: reduces
[9]
  high-fat diet-induced hypertension: prevents

## CN1CCc2c(c3ccccc3n2Cc2ccc(C(=O)NO)cc2)C1 [tubastatin A]
[1]; Ang II-infused mice ref 28
  hypertension: did not reduce
